According to paper PMC7602263, “Exploring the Use of Helicogenic Amino Acids for Optimising Single Chain Relaxin-3 Peptide Agonists” (Biomedicines, 2020):
Like-named read-outs stand apart in the source and are kept apart here. Where a SMILES comes first, the peptide text is derived from it. Bridges are numbered along the chain shown (N, C = ends). Where no end group is shown, it is not given here. [ ]: non-standard residue; d: D form. S5 = C=CCCC[C@](C)(N)C(=O)O

Assays:
RXFP3 [1] = target: T1, RXFP3 (Homo sapiens, UniProt Q9NSD7); assay: Competition binding assay with Eu-labelled R3 B1-22R on CHO-K1 cells stably expressing RXFP3; conditions: read-out: pKi [logM] (converted)
T1 construct: expressed in transfected cells; host or cells: CHO-K1
T1 sequence (Q9NSD7 1-469): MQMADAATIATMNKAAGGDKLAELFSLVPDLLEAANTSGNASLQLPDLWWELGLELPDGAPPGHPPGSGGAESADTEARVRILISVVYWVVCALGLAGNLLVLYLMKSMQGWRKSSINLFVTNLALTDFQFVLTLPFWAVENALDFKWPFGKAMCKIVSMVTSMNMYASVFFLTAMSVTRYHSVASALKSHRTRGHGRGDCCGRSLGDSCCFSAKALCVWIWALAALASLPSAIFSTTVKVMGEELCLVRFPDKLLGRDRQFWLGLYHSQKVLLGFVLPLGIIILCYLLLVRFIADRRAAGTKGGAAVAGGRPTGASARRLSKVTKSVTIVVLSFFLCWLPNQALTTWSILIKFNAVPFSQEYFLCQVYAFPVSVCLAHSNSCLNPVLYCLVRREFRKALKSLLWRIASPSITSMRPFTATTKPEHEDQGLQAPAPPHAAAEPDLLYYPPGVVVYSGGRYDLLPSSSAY
Method: Determination of binding affinity in this study was carried out as previously described. Briefly, CHO-K1 cells stably expressing RXFP3 [38] were treated with 5 nM Eu-labelled R3 B1-22R with increasing concentrations of novel analogues. Fluorescence measurement were recorded with 340 nm excitation and 614 nm emission wavelengths. Assays were conducted in triplicates and independently repeated at least three times. […] Statistical analyses were conducted using 1-way ANOVA with uncorrected Fisher’s least square difference in GraphPad Prism 8.0.
(§1) To determine their binding affinity, the ability of increasing concentration of analogues to compete with europium labelled R3 B1-22R were measured using CHO cells stably expressing RXFP3 [37]. Their potency at RXFP3 was measured by inhibition of cAMP accumulation induced by forskolin, as RXFP3 couples to an inhibitory G-protein.

RXFP3 [2] = target: T1, RXFP3; assay: cAMP activity assay: inhibition of forskolin-induced cAMP accumulation in CHO-K1 cells stably expressing RXFP3; format: cell-based; conditions: for EC50: CHO-K1 cells stably expressing RXFP3, inhibition of cAMP accumulation stimulated by 5 μM forskolin, mean ± SEM, triplicates, three independent experiments; for maximum cAMP accumulation inhibition: at the highest concentration tested, CHO-K1 cells expressing RXFP3, forskolin-stimulated (Figure 3)
Method: CHO-KI cells stably expressing RXFP3 were used to study the ability of the novel analogues to inhibit forskolin-induced cAMP accumulation. Assays were conducted as previously described. Briefly, 5 μM forskolin was used to stimulate the cells and increasing concentrations of the novel analogues were added to measure the dose-dependent reduction in the cAMP response via activation of the Gi/o-coupled RXFP3. Each analogue was tested in triplicates and each experiment was independently repeated three times. Data are presented as mean ± SEM and were analysed using GraphPad Prism 8.0. Statistical analyses were conducted using 1-way ANOVA and uncorrected Fisher’s least square difference.
as §1

Ki (RXFP3 [1]; SEM) [µM] | EC50 (RXFP3 [2]; SEM) [µM] | EC50 (RXFP3 [2]) [µM] | maximum cAMP accumulation inhibition (RXFP3 [2]) | Ki (RXFP3 [1]) [µM] | Compound
0.0417 | – | – | – | – | CC[C@H](C)[C@@H]1NC(=O)[C@H](Cc2ccccc2)NC(=O)[C@@](C)(NC(=O)[C@H](CCCNC(=N)N)NC(=O)CNC(=O)[C@H](CO)NC(C)=O)CCCC=CCCC[C@@](C)(C(=O)N[C@H](C(=O)N[C@H](C(=O)N[C@@H](Cc2ccccc2)C(=O)N[C@H](C(=O)N[C@@H](CO)C(=O)NCC(=O)NCC(=O)N[C@@H](CO)C(=O)N[C@@H](CCCNC(=N)N)C(=O)N[C@@H](Cc2c[nH]c3ccccc23)C(=O)O)[C@@H](C)O)[C@@H](C)CC)C(C)C)NC(=O)[C@H](CCCNC(=N)N)NC1=O [Ac-R3B10-27 [13/17 HC], reference compound] (Ac-SGR[S5]FIR[S5]VIFTSGGSRW-OH; staple 4-8)
0.562 | 0.0676 | – | – | – | CC[C@H](C)[C@H](NC(=O)[C@H](Cc1ccccc1)NC(=O)C(C)(C)NC(=O)[C@H](CCCNC(=N)N)NC(=O)CNC(=O)[C@H](CO)NC(C)=O)C(=O)N[C@@H](CCCNC(=N)N)C(=O)NC(C)(C)C(=O)N[C@H](C(=O)N[C@H](C(=O)N[C@@H](Cc1ccccc1)C(=O)N[C@H](C(=O)N[C@@H](CO)C(=O)NCC(=O)NCC(=O)N[C@@H](CO)C(=O)N[C@@H](CCCNC(=N)N)C(=O)N[C@@H](Cc1c[nH]c2ccccc12)C(=O)O)[C@@H](C)O)[C@@H](C)CC)C(C)C [Analogue 1] (HELM PEPTIDE1{[ac].S.G.R.[Aib].F.I.R.[Aib].V.I.F.T.S.G.G.S.R.W}$$$$V2.0)
1.48 | 0.55 | – | – | – | CC[C@H](C)[C@H](NC(=O)[C@@H](NC(=O)C(C)(C)NC(=O)[C@H](CCCNC(=N)N)NC(=O)[C@@H](NC(=O)C(C)(C)NC(=O)C(C)(C)NC(=O)[C@H](CCCNC(=N)N)NC(=O)CNC(=O)[C@H](CO)NC(C)=O)[C@@H](C)CC)C(C)C)C(=O)N[C@@H](Cc1ccccc1)C(=O)N[C@H](C(=O)N[C@@H](CO)C(=O)NCC(=O)NCC(=O)N[C@@H](CO)C(=O)N[C@@H](CCCNC(=N)N)C(=O)N[C@@H](Cc1c[nH]c2ccccc12)C(=O)O)[C@@H](C)O [Analogue 2] (HELM PEPTIDE1{[ac].S.G.R.[Aib].[Aib].I.R.[Aib].V.I.F.T.S.G.G.S.R.W}$$$$V2.0)
– | 0.0912 | – | – | – | CC[C@H](C)[C@H](NC(=O)[C@H](Cc1ccccc1)NC(=O)C(C)(C)NC(=O)[C@H](CCCNC(=N)N)NC(=O)CNC(=O)[C@@H](N)CO)C(=O)N[C@@H](CCCNC(=N)N)C(=O)NC(C)(C)C(=O)NC(C)(C)C(=O)N[C@H](C(=O)N[C@@H](Cc1ccccc1)C(=O)N[C@H](C(=O)N[C@@H](CO)C(=O)NCC(=O)NCC(=O)N[C@@H](CO)C(=O)N[C@@H](CCCNC(=N)N)C(=O)N[C@@H](Cc1c[nH]c2ccccc12)C(=O)O)[C@@H](C)O)[C@@H](C)CC [Analogue 3] (HELM PEPTIDE1{S.G.R.[Aib].F.I.R.[Aib].[Aib].I.F.T.S.G.G.S.R.W}$$$$V2.0)
0.759 | 0.0331 | – | – | – | CC[C@H](C)[C@H](NC(=O)[C@H](Cc1ccccc1)NC(=O)C(C)(C)NC(=O)[C@H](CCCNC(=N)N)NC(=O)CNC(=O)[C@H](CO)NC(C)=O)C(=O)N[C@@H](CCCNC(=N)N)C(=O)NC(C)(C)C(=O)NC(C)(C)C(=O)N[C@H](C(=O)N[C@@H](Cc1ccccc1)C(=O)N[C@H](C(=O)N[C@@H](CO)C(=O)NCC(=O)NCC(=O)N[C@@H](CO)C(=O)N[C@@H](CCCNC(=N)N)C(=O)N[C@@H](Cc1c[nH]c2ccccc12)C(=O)O)[C@@H](C)O)[C@@H](C)CC [Analogue 4] (HELM PEPTIDE1{[ac].S.G.R.[Aib].F.I.R.[Aib].[Aib].I.F.T.S.G.G.S.R.W}$$$$V2.0)
– | – | 1.02 | – | – | CC[C@H](C)[C@H](NC(=O)[C@H](Cc1ccccc1)NC(=O)C(C)(C)NC(=O)[C@H](CCCNC(=N)N)NC(=O)CNC(=O)[C@@H](N)CO)C(=O)N[C@@H](CCCNC(=N)N)C(=O)NC(C)(C)C(=O)N[C@H](C(=O)N[C@H](C(=O)N[C@@H](Cc1ccccc1)C(=O)NC(C)(C)C(=O)N[C@@H](CO)C(=O)NCC(=O)NCC(=O)N[C@@H](CO)C(=O)N[C@@H](CCCNC(=N)N)C(=O)N[C@@H](Cc1c[nH]c2ccccc12)C(=O)O)[C@@H](C)CC)C(C)C [Analogue 5] (HELM PEPTIDE1{S.G.R.[Aib].F.I.R.[Aib].V.I.F.[Aib].S.G.G.S.R.W}$$$$V2.0)
1.7 | 1.86 | – | – | – | CC[C@H](C)[C@H](NC(=O)[C@H](Cc1ccccc1)NC(=O)C(C)(C)NC(=O)[C@H](CCCNC(=N)N)NC(=O)CNC(=O)[C@H](CO)NC(C)=O)C(=O)N[C@@H](CCCNC(=N)N)C(=O)NC(C)(C)C(=O)N[C@H](C(=O)N[C@H](C(=O)N[C@@H](Cc1ccccc1)C(=O)NC(C)(C)C(=O)N[C@@H](CO)C(=O)NCC(=O)NCC(=O)N[C@@H](CO)C(=O)N[C@@H](CCCNC(=N)N)C(=O)N[C@@H](Cc1c[nH]c2ccccc12)C(=O)O)[C@@H](C)CC)C(C)C [Analogue 6] (HELM PEPTIDE1{[ac].S.G.R.[Aib].F.I.R.[Aib].V.I.F.[Aib].S.G.G.S.R.W}$$$$V2.0)
1.12 | – | > 10 | ~ 50% | – | CC[C@H](C)[C@H](NC(=O)[C@H](Cc1ccccc1)NC(=O)C(C)(C)NC(=O)[C@H](CCCNC(=N)N)NC(=O)CNC(=O)[C@@H](N)CO)C(=O)N[C@@H](CCCNC(=N)N)C(=O)NC(C)(C)C(=O)N[C@H](C(=O)N[C@H](C(=O)N[C@@H](Cc1ccccc1)C(=O)N[C@H](C(=O)NC(C)(C)C(=O)NCC(=O)NCC(=O)N[C@@H](CO)C(=O)N[C@@H](CCCNC(=N)N)C(=O)N[C@@H](Cc1c[nH]c2ccccc12)C(=O)O)[C@@H](C)O)[C@@H](C)CC)C(C)C [Analogue 7] (HELM PEPTIDE1{S.G.R.[Aib].F.I.R.[Aib].V.I.F.T.[Aib].G.G.S.R.W}$$$$V2.0)
0.955 | – | > 10 | ~ 50% | – | CC[C@H](C)[C@H](NC(=O)[C@H](Cc1ccccc1)NC(=O)C(C)(C)NC(=O)[C@H](CCCNC(=N)N)NC(=O)CNC(=O)[C@H](CO)NC(C)=O)C(=O)N[C@@H](CCCNC(=N)N)C(=O)NC(C)(C)C(=O)N[C@H](C(=O)N[C@H](C(=O)N[C@@H](Cc1ccccc1)C(=O)N[C@H](C(=O)NC(C)(C)C(=O)NCC(=O)NCC(=O)N[C@@H](CO)C(=O)N[C@@H](CCCNC(=N)N)C(=O)N[C@@H](Cc1c[nH]c2ccccc12)C(=O)O)[C@@H](C)O)[C@@H](C)CC)C(C)C [Analogue 8] (HELM PEPTIDE1{[ac].S.G.R.[Aib].F.I.R.[Aib].V.I.F.T.[Aib].G.G.S.R.W}$$$$V2.0)
2 | 1.78 | – | – | – | CC[C@H](C)[C@H](NC(=O)[C@H](Cc1ccccc1)NC(=O)C(C)(C)NC(=O)[C@H](CCCNC(=N)N)NC(=O)CNC(=O)[C@@H](N)CO)C(=O)N[C@@H](CCCNC(=N)N)C(=O)NC(C)(C)C(=O)NC(C)(C)C(=O)N[C@H](C(=O)N[C@@H](Cc1ccccc1)C(=O)NC(C)(C)C(=O)N[C@@H](CO)C(=O)NCC(=O)NCC(=O)N[C@@H](CO)C(=O)N[C@@H](CCCNC(=N)N)C(=O)N[C@@H](Cc1c[nH]c2ccccc12)C(=O)O)[C@@H](C)CC [Analogue 9] (HELM PEPTIDE1{S.G.R.[Aib].F.I.R.[Aib].[Aib].I.F.[Aib].S.G.G.S.R.W}$$$$V2.0)
– | 3.24 | – | – | > 10 | CC[C@H](C)[C@H](NC(=O)[C@H](Cc1ccccc1)NC(=O)C(C)(C)NC(=O)[C@H](CCCNC(=N)N)NC(=O)CNC(=O)[C@H](CO)NC(C)=O)C(=O)N[C@@H](CCCNC(=N)N)C(=O)NC(C)(C)C(=O)NC(C)(C)C(=O)N[C@H](C(=O)N[C@@H](Cc1ccccc1)C(=O)NC(C)(C)C(=O)N[C@@H](CO)C(=O)NCC(=O)NCC(=O)N[C@@H](CO)C(=O)N[C@@H](CCCNC(=N)N)C(=O)N[C@@H](Cc1c[nH]c2ccccc12)C(=O)O)[C@@H](C)CC [Analogue 10] (HELM PEPTIDE1{[ac].S.G.R.[Aib].F.I.R.[Aib].[Aib].I.F.[Aib].S.G.G.S.R.W}$$$$V2.0)
1.23 | – | – | – | – | RAAPYGVRLSGREFIRAVIFTSGGSRW [H3 B-chain, reference compound]
